Tested on: EpidermFT™ Skin Model (EFT-400) full thickness skin cultures
Test: Affymetrix GeneChip HG U133 Plus 2.0 microarray global gene expression, agent-exposed vs untreated skin cultures
Type: cell-based, human
Settings: Salicin 0.5% vs Untreated Control, 24 hr treatment

## OCc1ccccc1O[C@@H]1O[C@H](CO)[C@@H](O)[C@H](O)[C@H]1O [Salicin, 2-(Hydroxymethyl)phenyl β-D-glucospyranoside]
  Direction UGCGL2 (218801_at): up
  Direction UST (205139_s_at): up
  Direction WIPI1 (203827_at): up
  Direction XPO1 (235927_at): up
  Direction ZFAND5 (217649_at): up
  Direction ZFP36L1 (211965_at): up
  Direction ZNF281 (228785_at): up
  Direction ZNF331 (219228_at): up
  Direction ZNF697 (227080_at): up
  Fold change ABHD2 (205566_at): 2.508
  Fold change ABHD2 (221815_at): 2.348
  Fold change ABHD2 (225337_at): 2.704
  Fold change ADAMTS5 (235368_at): 2.751
  Fold change ADAMTS6 (1570351_at): 2.37
  Fold change ADCYAP1 (230237_at): 2.573
  Fold change AHI1 (220841_s_at): 2.322
  Fold change AHI1 (221569_at): 2.667
  Fold change AKR1C1 (1562102_at): 2.331
  Fold change AKT3 (212607_at): 2.622
  Fold change AKT3 (212609_s_at): 2.3
  Fold change AKT3 (222880_at): 2.365
  Fold change AKT3 (224229_s_at): 2.751
  Fold change ALG9 (228817_at): 2.321
  Fold change ANKRD28 (213035_at): 2.361
  Fold change ANKRD28 (229307_at): 2.421
  Fold change ARMC8 (1555281_x_at): 2.299
  Fold change ARNT2 (202986_at): 2.361
  Fold change ATF3 (1554980_a_at): 2.623
  Fold change ATP2A3 (207522_s_at): 2.434
  Fold change BAG2 (209406_at): 2.774
  Fold change BCL2L11 (1558143_a_at): 2.347
  Fold change BNC2 (220272_at): 2.471
  Fold change BNC2 (235723_at): 2.707
  Fold change C1GALT1C1 (238989_at): 2.327
  Fold change C1orf67 /// DNAH14 (242283_at): 2.614
  Fold change C13orf33 (227058_at): 2.621
  Fold change CABLES1 (225532_at): 2.633
  Fold change CARD16 (1552701_a_at): 2.363
  Fold change CCR1 (205098_at): 2.474
  Fold change CDCP1 (1554110_at): 2.44
  Fold change CDR2 (209501_at): 2.488
  Fold change CHST2 (203921_at): 2.332
  Fold change CLGN (205830_at): 2.486
  Fold change CNOT3 (203239_s_at): 2.466
  Fold change CPM (241765_at): 2.574
  Fold change CPM (243403_x_at): 2.436
  Fold change CREM (207630_s_at): 2.309
  Fold change CUL4B (202213_s_at): 2.538
  Fold change CXCL1 (204470_at): 2.363
  Fold change CYP7B1 (207386_at): 2.782
  Fold change CYR61 (210764_s_at): 2.692
  Fold change DENND3 (212975_at): 2.471
  Fold change DENND5B (228551_at): 2.474
  Fold change DGKI (206806_at): 2.74
  Fold change DNAJB9 (202842_s_at): 2.613
  Fold change DNAJB9 (1554462_a_at): 2.666
  Fold change DNAJC10 (221781_s_at): 2.508
  Fold change DNAJC10 (221782_at): 2.553
  Fold change DOCK4 (205003_at): 2.383
  Fold change DOCK5 (230206_at): 2.653
  Fold change DOCK5 (230263_s_at): 2.362
  Fold change DOK6 (236290_at): 2.316
  Fold change DSEL (232825_s_at): 2.821
  Fold change DUSP4 (204015_s_at): 2.668
  Fold change DZIP1 (204557_s_at): 2.653
  Fold change EIF2AK3 (218696_at): 2.305
  Fold change ELL2 (214446_at): 2.557
  Fold change ELTD1 (219134_at): 2.637
  Fold change ENPP1 (205066_s_at): 2.414
  Fold change ENTPD7 (220153_at): 2.395
  Fold change EPS8 (202609_at): 2.334
  Fold change EREG (205767_at): 2.487
  Fold change ERO1LB (220012_at): 2.376
  Fold change FADS1 (208963_x_at): 2.411
  Fold change FADS1 (208964_s_at): 2.638
  Fold change FAM20A (226804_at): 2.437
  Fold change FAM107B (223058_at): 2.544
  Fold change FAM107B (223059_s_at): 2.476
  Fold change FAR2 (220615_s_at): 2.497
  Fold change FAT4 (219427_at): 2.428
  Fold change FEM1B (212374_at): 2.726
  Fold change FGF7 (1555103_s_at): 2.35
  Fold change FGF7 /// KGFLP1 /// KGFLP2 (1554741_s_at): 2.506
  Fold change FHOD3 (218980_at): 2.607
  Fold change FKBP11 (219117_s_at): 2.431
  Fold change FKBP11 (219118_at): 2.422
  Fold change FMN2 (1555471_a_at): 2.355
  Fold change FN1 (214701_s_at): 2.436
  Fold change FN1 (214702_at): 2.71
  Fold change FOXJ3 (217310_s_at): 2.327
  Fold change FPR1 (205119_s_at): 2.402
  Fold change GAS1 (204457_s_at): 2.783
  Fold change GCLM (203925_at): 2.646
  Fold change GCLM (236140_at): 2.667
  Fold change GEM (204472_at): 2.52
  Fold change GFPT1 (226886_at): 2.512
  Fold change GFPT2 (205100_at): 2.3
  Fold change GLIPR1 (204222_s_at): 2.366
  Fold change GRAMD1A (224807_at): 2.363
  Fold change GRAMD1B (212906_at): 2.401
  Fold change GUCY1A3 (221942_s_at): 2.594
  Fold change GUCY1A3 (229530_at): 2.498
  Fold change HERC3 (1554290_at): 2.372
  Fold change HEY1 (44783_s_at): 2.372
  Fold change HIST1H2AB /// HIST1H2AE (214469_at): 2.52
  Fold change HIST1H2AD /// HIST1H3A /// HIST1H3B /// HIST1H3C /// HIST1H3D /// HIST1H3E /// HIST1H3F /// HIST1H3G /// HIST1H3H /// HIST1H3I /// HIST1H3J (214472_at): 2.608
  Fold change HIST2H2AA3 /// HIST2H2AA4 (214290_s_at): 2.42
  Fold change HK2 (222305_at): 2.329
  Fold change HOXB2 (205453_at): 2.404
  Fold change HSD17B2 (204818_at): 2.766
  Fold change HSPA13 (202557_at): 2.665
  Fold change ID2 /// ID2B (213931_at): 2.802
  Fold change IGFBP5 (211958_at): 2.712

— patent US20120034613A1, “Apparatus and Method for Testing Relationships Between Gene Expression and Physical Appearance of Skin” (NSE Products, Inc., priority 2010, published 2012)
